SMILES strings stand for the structures.

Data set [1] has as its system Rattus norvegicus. Put plainly: AUC in Sprague-Dawley rat at 50 mg/kg, po pretreated with Escherichia coli lipopolysaccharide (Rvb=609 +/- 323 ug/min/ml). Conditions: in vivo. Type of data set: ADME, organism-based, Plasma. Further details: dose 50 mg/kg, route oral.
The nature of data set [2]: Drug absorption in Sprague-Dawley rat gastrointestinal tract at 50 mg/kg, po after 24 hrs pretreated with Escherichia coli lipopolysaccharide (Rvb=5.73 +/- 4.57 %). It counts as ADME, organism-based. Details: dose 50 mg/kg, route oral.
A short description of data set [3]: Oral bioavailability in Sprague-Dawley rat at 50 mg/kg, po pretreated with Escherichia coli lipopolysaccharide (Rvb=38.8%). To be noted: in vivo. It counts as ADME, organism-based.
Data set [4] in a line: Apparent volume of distribution in Sprague-Dawley rat at 50 mg/kg, iv pretreated with Escherichia coli lipopolysaccharide (Rvb=4,950 +/- 1160 ml/kg). Type of data set: ADME, organism-based. Details: dose 50 mg/kg, route intravenous. To be noted: in vivo, read-out: Vdss(app).
Data set [5] can be described thus: Renal clearance in Sprague-Dawley rat at 50 mg/kg, iv pretreated with Escherichia coli lipopolysaccharide (Rvb=5.29 +/- 0.643 ml/min/kg). Further details: dose 50 mg/kg, route intravenous. It counts as ADME, organism-based, Kidney. Conditions: in vivo, read-out: CL_renal.
The nature of data set [6]: Tmax in Sprague-Dawley rat at 50 mg/kg, po pretreated with Escherichia coli lipopolysaccharide (Rvb=180 min). Type of data set: ADME, organism-based. Details: dose 50 mg/kg, route oral. Conditions: in vivo.
For data set [7], the system named is Rattus norvegicus. As to the kind of experiment: AUC in Sprague-Dawley rat at 50 mg/kg, iv pretreated with Escherichia coli lipopolysaccharide (Rvb=1570 +/- 240 ug/min/ml). It counts as ADME, organism-based, Plasma. Details: dose 50 mg/kg, route intravenous. To be noted: in vivo.
A short description of data set [8]: Half life in Sprague-Dawley rat at 50 mg/kg, iv pretreated with Escherichia coli lipopolysaccharide (Rvb=159 +/- 56.3 min). Type of data set: ADME, organism-based. Details: dose 50 mg/kg, route intravenous. Conditions: in vivo.
Data set [9] in a line: Drug absorption in Sprague-Dawley rat gastrointestinal tract at 50 mg/kg, iv after 24 hrs pretreated with Escherichia coli lipopolysaccharide (Rvb=8.53 +/- 4.64 %). It counts as ADME, organism-based. Further details: dose 50 mg/kg, route intravenous.
Data set [10] can be described thus: Half life in Sprague-Dawley rat at 50 mg/kg, po pretreated with Escherichia coli lipopolysaccharide (Rvb=123 +/- 63.4 min). To be noted: in vivo. Type of data set: ADME, organism-based. Details: dose 50 mg/kg, route oral.
Data set [11] is described as follows: Renal clearance in Sprague-Dawley rat at 50 mg/kg, po pretreated with Escherichia coli lipopolysaccharide (Rvb=4.21 +/- 1.81 ml/min/kg). It counts as ADME, organism-based, Kidney. Further details: dose 50 mg/kg, route oral. To be noted: in vivo, read-out: CL_renal.
Data set [12] in a line: Drug excretion in Sprague-Dawley rat urine assessed as unchanged drug at 50 mg/kg, iv after 24 hrs pretreated with Escherichia coli lipopolysaccharide (Rvb=16.5 +/- 2.32 %). Type of data set: ADME, organism-based. Details: dose 50 mg/kg, route intravenous. Conditions: read-out: Drug uptake.
Data set [13] can be described thus: Drug excretion in Sprague-Dawley rat urine assessed as unchanged drug at 50 mg/kg, po after 24 hrs pretreated with Escherichia coli lipopolysaccharide (Rvb=4.78 +/- 3.28 %). It counts as ADME, organism-based. Details: dose 50 mg/kg, route oral. To be noted: read-out: Drug uptake.
The nature of data set [14]: Clearance in Sprague-Dawley rat at 50 mg/kg, iv pretreated with Escherichia coli lipopolysaccharide (Rvb=32.4+/- 5.25 ml/min/kg). Type of data set: ADME, organism-based. Details: dose 50 mg/kg, route intravenous. To be noted: in vivo.
Data set [15] concerns Rattus norvegicus. As to the kind of experiment: Nonrenal clearance in Sprague-Dawley rat at 50 mg/kg, iv pretreated with Escherichia coli lipopolysaccharide (Rvb=27.2 +/- 5.02 ml/min/kg). Type of data set: ADME, organism-based. Details: dose 50 mg/kg, route intravenous. To be noted: in vivo.
Data set [16] can be described thus: Cmax in Sprague-Dawley rat at 50 mg/kg, po pretreated with Escherichia coli lipopolysaccharide (Rvb=2.35 +/- 1.19 ug/ml). Type of data set: ADME, organism-based. Details: dose 50 mg/kg, route oral. To be noted: in vivo.

Regarding `CC[C@H]1OC(=O)[C@H](C)C(=O)[C@H](C)[C@@H](O[C@@H]2O[C@H](C)C[C@H](N(C)C)[C@H]2O)[C@](C)(OC)C[C@@H](C)C(=O)[C@H](C)[C@H]2N(CCCCn3cnc(-c4cccnc4)c3)C(=O)O[C@]12C` [TELITHROMYCIN], the AUC with Rattus norvegicus [1] was determined as 1460 µg/min/mL; with Rattus norvegicus [7], 2880 µg/min/mL. Moreover, the percent of dose recovered from gastrointestinal tract at 24 h turned out to be 9.63% in [2] and 5.31% in [9]. Moreover, the bioavailability (commonly the share of a dose that reaches the circulation, judged against a reference dose that is usually intravenous) in [3] worked out at 50.7%. In addition, the Vd in data set [4] turned out to be 3.28 L/kg. For the same molecule, the CL renal worked out at 0.256 L/h/kg in [5] and 0.19 L/h/kg in data set [11]. Further, in [6], the Tmax – broadly, the time from dosing to the highest level – was 3 h. Moreover, the results for the half-life in data set [8] and in data set [10] were 2.55 h and 2.33 h, respectively. Moreover, the dose excreted at 24 h in [12] is 23.8%; in data set [13] it was 9.54%. For the same molecule, the clearance (commonly a measure of how efficiently the substance is removed, as volume per time) in data set [14] turned out to be 1.16 L/h/kg. Moreover, in the data set with Rattus norvegicus [15], the CL amounted to 0.906 L/h/kg. The Cmax – broadly, the highest concentration seen after dosing – in data set [16] came out at 5.03 µg/mL.

For the origin of these results see ChEMBL document CHEMBL1255251, “Effects of Escherichia coli lipopolysaccharide on telithromycin pharmacokinetics in rats: inhibition of metabolism via CYP3A” (Antimicrob Agents Chemother, 2008).
